Data set [1] in a line: Selectivity index, ratio of IC50 for rat L6 cells to IC50 for Trypanosoma brucei Lister 427. It is filed as toxicity, cell-based. To be noted: L6 cells (versus Trypanosoma brucei Lister 427), read-out: Ratio IC50.
In the next data set the test system is L6. As to the kind of experiment: Cytotoxicity against rat L6 cells after 6 days by Alamar Blue fluorescence assay. It is filed as cell-based. The note with it: L6, 144 h. Background: The colour change of resazurin is a common sign of viable cells or microbes.
The test system of a further data set is Trypanosoma brucei. Kind of data set: Antitrypanosomal activity against Trypanosoma brucei Lister 427 after 2 days by Alamar Blue fluorescence assay. To be noted: Lister 427, 48 h. It is filed as functional, organism-based.

This note sets out measurements from ChEMBL document CHEMBL3217634, “Synthesis and trypanocidal action of new adamantane substituted imidazolines” (Medchemcomm, 2013).

For `CN1C(N)=NCC1C12CC3CC(CC(C4CCCCC4)(C3)C1)C2` (stereo not drawn), the selectivity ratio in data set [1] stood at 4.3. Besides, in the data set on L6, the IC50 (usually the concentration that inhibits the measured activity by half) amounted to 7.39 µM. For the same compound, in the data set on Trypanosoma brucei, the concentration for half-maximal inhibition (IC50) was 1.72 µM and the 90% effect level (IC90) was put at 2.35 µM.
In the case of `C1=NCC(C23CC4CC(CC(C5CCCCC5)(C4)C2)C3)N1` (stereo not drawn), the selectivity ratio in data set [1] was determined as 2.5. Further, the IC50 with L6 came out at 7.22 µM. Further, in the data set with Trypanosoma brucei, the IC50 turned out to be 2.89 µM and the IC90 – broadly, the concentration needed for an effect of 90% – stood at 4.2 µM.
In the data set on Trypanosoma brucei, `NC1=NCC(C23CC4CC(CC(c5ccccc5)(C4)C2)C3)N1` (stereo not drawn) had a concentration for half-maximal inhibition (IC50) of 7.39 µM and an IC90 of 11.8 µM.
On to `CC1=NCC(C23CC4CC(CC(C5CCCC5)(C4)C2)C3)N1` (stereo not drawn), for which the selectivity ratio in data set [1] came out at 1.6. In the data set on L6, this compound showed an IC50 of 3.56 µM. In the data set on Trypanosoma brucei, this compound yielded an IC50 of 2.16 µM and a concentration for an effect of 90% (IC90) of 2.77 µM.
In the same order, the values of `CC1=NCC(C23CC4CC(CC(C5CCCC5)(C4)C2)C3)N1C` (stereo not drawn) are 1.3, 3.77 µM, 2.97 µM and 4.51 µM.
In the data set on Trypanosoma brucei, `CC(N)C12CC3CC(CC(C3)C1)C2` (stereo not drawn) [RIMANTADINE] showed an IC90 of 14 µM. This counts as double-digit micromolar.
Consider `NC1=NCC(C23CC4CC(CC(C5CCCC5)(C4)C2)C3)N1` (stereo not drawn), for which the selectivity ratio in data set [1] stood at 7.9. Besides, in the data set with L6, the IC50 is 17.2 µM. In the data set with Trypanosoma brucei, the IC50 is 2.17 µM and the 90% effect level (IC90) was put at 2.63 µM.
On the same counts, the results for `CN1C(N)=NCC1C12CC3CC(CC(C4CCCC4)(C3)C1)C2` (stereo not drawn) are 7.1, 11.7 µM, 1.65 µM and 2.23 µM.
On the same counts, the results for `NC1=NCC(C23CC4CC(CC(C5CCCC5)(C4)C2)C3)N1C1CCCCC1` (stereo not drawn) are 5, 3.22 µM, 0.65 µM and 0.84 µM.
On the same counts, the results for `C1=NCC(C23CC4CC(CC(C5CCCC5)(C4)C2)C3)N1C1CCCCC1` (stereo not drawn) are 1.9, 3.46 µM, 1.82 µM and 2.41 µM.
In the case of `NC1=NCC(C23CC4CC(CC(C5CCCC5)(C4)C2)C3)N1c1ccccc1` (stereo not drawn), in the data set with Trypanosoma brucei, the IC50 stood at 11.1 µM and the IC90 amounted to 15.5 µM.
In the same order, the values of `NC12CC3CC(CC(C3)C1)C2` [AMANTADINE] are over 132 µM and over 132 µM.
Regarding `C1=NCC(C23CC4CC(CC(C5CCCC5)(C4)C2)C3)N1` (stereo not drawn), in data set [1], the selectivity ratio worked out at 2.4. The compound further yielded an IC50 with L6 of 3.7 µM. In the data set with Trypanosoma brucei, the IC50 was 1.57 µM and the IC90 came out at 2.42 µM.
In the data set on Trypanosoma brucei, `C1=NCC(C23CC4CC(CC(C5CCCC5)(C4)C2)C3)N1c1ccccc1` (stereo not drawn) gave an IC50 of 16.4 µM and a concentration for an effect of 90% (IC90) of 24.2 µM.
Take `NC1=NCC(C23CC4CC(CC(C5CCCCC5)(C4)C2)C3)N1` (stereo not drawn): the selectivity ratio in data set [1] was 10.2. The midpoint of inhibition in the data set on L6, the IC50, lay at 19 µM. In the data set with Trypanosoma brucei, this compound had an IC50 of 1.86 µM and an IC90 of 2.52 µM.
In the same order, the values of `CN1C=NCC1C12CC3CC(CC(C4CCCC4)(C3)C1)C2` (stereo not drawn) are 3.9, 5.77 µM, 1.5 µM and 1.83 µM.
Regarding `CC1=NCC(C23CC4CC(CC(c5ccccc5)(C4)C2)C3)N1` (stereo not drawn), in the data set with Trypanosoma brucei, the half-inhibitory concentration (IC50) amounted to 4.88 µM and the IC90 stood at 8.11 µM.
On the same counts, the results for `CN1C=NCC1C12CC3CC(CC(c4ccccc4)(C3)C1)C2` (stereo not drawn) are 7.91 µM and 13.1 µM.
Consider `CC1=NCC(C23CC4CC(CC(c5ccccc5)(C4)C2)C3)N1C` (stereo not drawn), for which, in the data set with Trypanosoma brucei, the IC50 was 7.16 µM and the 90% effect level (IC90) was put at 10.3 µM.
On the same counts, the results for `C1=NCC(C23CC4CC(CC(c5ccccc5)(C4)C2)C3)N1` (stereo not drawn) are 7.09 µM and 9.02 µM.
On the same counts, the results for `CN1C(N)=NCC1C12CC3CC(CC(c4ccccc4)(C3)C1)C2` (stereo not drawn) are 4.53 µM and 5.58 µM.
